Test results reported in publication PMC6381276 (mBio, 2019).

Target: McpN (PA2788) chemoreceptor (Pseudomonas aeruginosa, UniProt Q9I055)
Test: biochemical

Sequence of McpN (PA2788) chemoreceptor (Q9I055 44-179): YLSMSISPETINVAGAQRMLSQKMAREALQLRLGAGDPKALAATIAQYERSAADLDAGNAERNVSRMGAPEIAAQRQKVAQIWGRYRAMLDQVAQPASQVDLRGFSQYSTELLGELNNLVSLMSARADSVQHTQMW

## O=[N+]([O-])O [nitrate]
  Kd: 47 ± 8 µM
